# Data as given in US7217688B2, “Methods and compositions for derepression of IAP-inhibited caspase” (The Burnham Institute, priority 2005, dated 2007).
# Square brackets hold non-standard residues; d marks the D form. Ends that are not written are not given here. Peptide text beside a SMILES is read from it. * marks the point of attachment. 5TAMRA = CN(C)c1ccc2c(c1)Oc1cc(N(C)C)ccc1C21OC(=O)c2cc(C(=O)*)ccc21; Phe(4-Cl) = N[C@@H](Cc1ccc(Cl)cc1)C(=O)O; 2Nal = N[C@@H](Cc1ccc2ccccc2c1)C(=O)O; Fmoc = O=C(OCC1c2ccccc2-c2ccccc21)*; 2Thi = N[C@@H](Cc1cccs1)C(=O)O
# Tests used:
# GST-BIR2 (XIAP fragment) = experiment: fluorescence polarization binding of rhodamine-SMAC
# Procedure: Assays were run in 50 mM Tris @ pH 7.2/100 mM NaCl/0.1% BSA.
# Jurkat leukemia cells = experiment: Jurkat cell death (Annexin V / propidium iodide flow cytometry); type: cell-based; conditions: for % nonviable cells: 20 hours; for cells killed: one day treatment
# Procedure: The following assay was used to test the ability of individual compounds from the TPI 1396 and TPI 1391 libraries to induce apoptosis of cultured tumor cell lines. Each of the compounds listed in Table IX was individually added to Jurkat leukemia cells (6.25×10^5 cells/mL) in RPMI containing 2.5% FBS at various concentrations for 20 hours. After incubation, cells were washed and stained with FITC-conjugated Annexin V antibody and propidium iodide (Biovision; Mountain View, Calif.). Cells were incubated for 20 minutes at room temperature in the dark and fluorescence was measured by flow cytometry (FACScan, Immunocytometry system; Becton-Dickinson; San Jose, Calif.). Cells staining positive for Annexin V were deemed non-viable.
# [1] = tested on: normal bone marrow mononuclear cells; experiment: normal bone marrow cell toxicity (Annexin V); type: cell-based; conditions: 5 μM, 20 hours
# Procedure: After incubation, cells were washed, stained with FITC-conjugated Annexin V antibody and propidium iodide, and fluorescence measured by flow cytometry as described above.
# full length XIAP = full length XIAP (Homo sapiens, UniProt P98170); experiment: potency of IAP antagonists at restoring caspase-3 activity / SMAC competition assay (Table VIII); conditions: for EC50: amount of compound necessary to restore caspase-3 activity to 50% of Vmax; for Relative Potency: fold relative to SMAC AVPI tetrapeptide
# Chain of full length XIAP (P98170 whole entry): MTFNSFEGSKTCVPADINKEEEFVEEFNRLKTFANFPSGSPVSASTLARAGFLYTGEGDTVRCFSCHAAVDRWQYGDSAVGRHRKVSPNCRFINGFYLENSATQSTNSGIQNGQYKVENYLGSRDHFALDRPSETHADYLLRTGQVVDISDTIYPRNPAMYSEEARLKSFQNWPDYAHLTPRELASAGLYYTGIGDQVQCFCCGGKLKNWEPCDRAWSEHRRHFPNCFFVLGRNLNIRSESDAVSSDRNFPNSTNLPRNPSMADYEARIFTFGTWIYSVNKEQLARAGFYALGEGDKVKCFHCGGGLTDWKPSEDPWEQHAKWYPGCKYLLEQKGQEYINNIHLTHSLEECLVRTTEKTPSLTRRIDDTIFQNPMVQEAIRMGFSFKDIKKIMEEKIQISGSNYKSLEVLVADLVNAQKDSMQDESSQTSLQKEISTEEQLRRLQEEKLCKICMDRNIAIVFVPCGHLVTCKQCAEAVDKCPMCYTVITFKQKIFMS
# XIAP-inhibited caspase-3 = biological target: T1, XIAP-inhibited caspase-3 (Homo sapiens, UniProt P98170); experiment: caspase derepression assay (XIAP-inhibited caspase-3, Ac-DEVD-AFC hydrolysis); type: biochemical
# T1 construct: in the derepression assay using full length XIAP; made in house; host or cells: bacteria
# T1 sequence (P98170 whole entry): as above
# Procedure: Caspase activity was assayed by release of 7-amino-4-trifluoromethyl-coumarin (AFC) from Ac-DEVD-AFC synthetic peptide using a Molecular Devices Spectromax 340 (see Zhou et al., J. Biol. Chem. 272:7797–7800 (1997)). […] The ratio of Vmax for hydrolysis of Ac-DEVD-AFC in the presence and absence of the candidate mixture was calculated and used to identify those that contain an agent that derepresses an IAP-inhibited caspase.
# Screening of each mixture from the DCR390, TPI 1239 or TPI 1328 library, respectively, using the above described assay was carried out as follows. Each mixture was aliquoted in a 25 microliter volume and in duplicate to a well of a 96 well microtiter plate. […] Fluorescence of liberated AFC was immediately detected from each well for 30 minutes at 30 second intervals. The Vmax for hydrolysis of AC-DEVD-AFC from each well was measured using the softmax software package. Results of the screen for the DCR390 library are shown in Table I. Sets of mixtures having the same position fixed with different respective amino acids are arranged in 6 sections identified with the position number. […] The mixture in each section are arranged in descending order according to apparent velocity in the second column.
# Briefly, recombinant proteins were produced in bacteria and purified as described, for example, in Deveraux et al., Nature 388:300–304(1997). […] Generation of fluorogenic AFC (7-amino-4-trifluoromethyl coumarin) product was measured with a spectrofluorometric plate reader in kinetic mode for 30 minutes at 37° C. using excitation and emission wavelengths of 405 nm and 510 nm, respectively. […] Control reactions lacked XIAP, and all assays were conducted in the linear range of substrate hydrolysis to avoid substrate depletion artifacts.
# [2] = tested on: NCI panel of 60 tumor cell lines; experiment: NCI panel of 60 tumor cell lines, protein-based colorimetric assay; design: species or system human; conditions: 48 hours
# Procedure: Selected polyphenylurea compounds were tested on the National Cancer Institute (NCI) panel of 60 tumor cell lines (see FIG. 28a and FIG. 29).
# [3] = tested on: PPC1 prostate cancer cells; experiment: PPC1 tumor xenograft; type: in vivo, Balb/C nu-/nu- mice; conditions: 30 mg/kg i.p. for 2 or 3 days
# From the text: Similar data was obtained using TPI 1396-22 (see FIG. 33a and 33b). […] In FIG. 33b, the mice were sacrificed at day 19 and the tumors excised and weighed.
# [4] = tested on: ALVA31 prostate cancer cells; experiment: ALVA31 cell viability (XTT dye-reduction and trypan blue exclusion); type: cell-based; conditions: peptides 40 μM, VP-16 100 μM, 24 hrs
# Procedure: The in vivo effects of TPI 792-33 or TPI 792-35, either individually or in combination with the cytotoxic anticancer drug VP-16 (etoposide), on derepression of XIAP-inhibited caspase and viability of ALVA31 cells was determined as follows. ALVA31 prostate cancer cells were seeded onto 96 well plates (10^4 cells/well) in 100 μL RPMI containing 2.5% fetal bovine serum (FBS). […] After another 24 hrs incubation, cell viability was measured by the XTT dye-reduction assay (Roche, Molecular Biochemicals; Indianapolis, Ind.) and trypan blue dye exclusion assay.
# [5] = tested on: NCI panel of 60 tumor cell lines; conditions: same assay, comparison drug; cited from earlier work
# [6] = tested on: mouse embryo fibroblasts (MEFs); experiment: mechanism-based toxicity in MEFs from XIAP -/- and wild type mice (MTT); type: cell-based; conditions: MEFs with or without SV40 large T antigen
# Procedure: Cells were either tested directly at low passage (FIGS. 38A and C) or after transformation by infection with a retrovirus encoding SV40 large T antigen (FIGS. 38B and D). […] Cell viability was measured by MTT assay, expressing data as a percentage relative to control, untreated cells. Data shown in FIG. 38A–D represent mean±standard deviation of triplicate determinations.
# GST-XIAP BIR2 = experiment: binding of XIAP-BIR2 to biotinylated peptides on Neutravidin plates; conditions: biotinylated peptides adsorbed to Neutravidin-coated plates
# Chain of GST-XIAP BIR2 (P98170 124-240 limits assumed): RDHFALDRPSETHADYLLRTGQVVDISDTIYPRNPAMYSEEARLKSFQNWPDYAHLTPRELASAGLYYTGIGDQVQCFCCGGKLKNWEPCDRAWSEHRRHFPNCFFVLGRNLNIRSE
# From the text: Bound GST polypeptides were detected with an anti-GST antibody.
compound,measurement,setting,value
CC[C@H](C)[C@H](NC(=O)[C@@H]1CCCN1C(=O)[C@@H](NC(=O)[C@H](C)N)C(C)C)C(=O)N[C@@H](C)C(=O)N[C@@H](CCC(N)=O)C(=O)N[C@@H](CCCCNC(=O)c1ccc2c(c1)C(=O)OC21c2ccc(N(C)C)cc2Oc2cc(N(C)C)ccc21)C(N)=O [Rhodamine-SMAC] (H-AVPIAQK(5TAMRA)-NH2; N-terminus and C-terminus assumed),Kd,GST-BIR2 (XIAP fragment),20 µM
CC(C)CC1CN(C(CNCc2ccccc2)Cc2ccc3ccccc3c2)C(=O)C(=O)N1CCc1cccc(C(F)(F)F)c1 (stereo not shown) [TPI 1391-28],% nonviable cells,Jurkat leukemia cells; 1 μM,19%
same,% nonviable cells,Jurkat leukemia cells; 5 μM (first column headed 5),12%
same,% nonviable cells,Jurkat leukemia cells; 5 μM (second column headed 5),28%
same,cells killed,Jurkat leukemia cells; 5 μM,about 45%
same,cells killed,Jurkat leukemia cells; 8 μM,~80%
same,% nonviable cells,Jurkat leukemia cells; 10 μM,55%
same,% nonviable cells,Jurkat leukemia cells; 25 μM,87%
same,% nonviable cells,Jurkat leukemia cells; 50 μM,91%
same,EC50,"Jurkat leukemia cells; one-day exposure, 0 to 20 μM, read-out: EC50 for killing Jurkat leukemia cells",~6.5 µM
same,toxicity to normal bone marrow cells,[1],little toxicity
same,EC50,full length XIAP,25.1 µM
same,Relative Potency,full length XIAP,5
COc1ccc(CCN2CCCC2CN(C(=O)Nc2ccccc2)C(CNC(=O)Nc2ccccc2)Cc2ccc3ccccc3c2)cc1 (stereo not shown) [TPI 1396-22],"Activity (relative caspase-3 activity, ratio of Vmax with compound to Vmax of caspase-3 and XIAP controls)","XIAP-inhibited caspase-3; Table X, R2 = L-Proline",3.3
same,activity in the derepression assay using full length XIAP,XIAP-inhibited caspase-3; active / inactive,active
same,average LD50 for the 60 cell lines,[2],11 ± 2.6 µM
same,median LD50 for the 60 cell lines,[2],22 µM
same,tumor growth / tumor size,[3],significantly slowed the rate of growth
same,EC50,full length XIAP,45.3 µM
same,Relative Potency,full length XIAP,2.8
"COc1cc([C@@H]2c3cc4c(cc3[C@@H](O[C@@H]3O[C@@H]5CO[C@@H](C)O[C@H]5[C@H](O)[C@H]3O)[C@H]3COC(=O)[C@H]23)OCO4)cc(OC)c1O [VP-16, etoposide]","effect on cell viability, agent alone",[4],essentially no effect
same,mean LD50 in the NCI panel of 60 tumor cell lines,[5],200 ± 2.5 µM
COc1cccc2c1C(=O)c1c(O)c3c(c(O)c1C2=O)C[C@@](O)(C(C)=O)C[C@@H]3O[C@H]1C[C@H](N)[C@H](O)[C@H](C)O1 [daunorubicin],selectivity for transformed versus non-transformed cells,[6],do not display selectivity for transformed cells
TPI 1554-1: biotinylated TPI 1453-1 ([2Thi][2Nal][Phe(4-Cl)]K(Fmoc); also: biotinylated (site not given here)),binding to XIAP-BIR2,GST-XIAP BIR2,comparable to the binding of SMAC peptides
TPI 1554-2: biotinylated TPI 1453-6 ([2Thi][2Nal][dK](Fmoc)K(Fmoc); also: biotinylated (site not given here)),binding to XIAP-BIR2,GST-XIAP BIR2,comparable to the binding of SMAC peptides
